Assay results published in US20150025077A1 (COYOTE PHARMACEUTICALS, INC., priority 2012, published 2015).
Like-named read-outs stand apart in the source and are kept apart here.

What was measured:
Rap1 = experiment: Prenylation of Rap1 in Neuro2A cells, western blotting; assay type: cell-based, mouse; settings: 100 nM
Summary of the method: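 Mouse Neuro2A cells in DMEM/10% FBS were treated with compound for 24 h, then GGTI-298 was added for a further 24 h. Un-prenylated and total Rap1 were quantified by western blot, normalized to GAPDH; the un-prenylated/total ratio was expressed as percent of GGTI-only control, mean of two biological repeats.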

[1] = test system: Rat primary motor neurons; experiment: Axon extension of rat primary motor neurons; assay type: cell-based; settings: 72 hrs; read-out: EC50 (cells extending axons)
Method: Rat primary motor neurons were isolated from embryonic spinal cords in accordance with the method of Henderson et al.; J Cohen and G P Wilkin (ed.), Neural Cell Culture, (1995) p69-81 which is herein incorporated by reference in its entirety. Briefly, spinal cords were dissected from day 15 embryo (E15) and incubated in a trypsin solution, and followed by DNase treatment to release spinal cord cells from tissue fragments. The cell suspension was centrifuged to remove tissue fragments. Then motor neurons were enriched by density gradient centrifugation.
Motor neurons were cultured in serum-free neurobasal medium containing insulin, forskolin, 3-isobutyl-1-methylxanthine, neurotrophic factors, Bovine serum albumin, selenium, transferrin, putrescine, progesterone and B27 supplement in tissue culture plate coated with poly-ornithine and laminin.
Rat primary motor neurons were prepared and cultured as described in Example 13. […] The cells extending axons were counted in five different fields for each treatment after 72 hrs. Percentage of positive cells relative to total cells in the same magnification field was calculated and the results were expressed as means+/−standard deviations, n=5.

Neuro2A cells = Neuro2A cells that extended neurites, with GGTI-298 (Example 18); assay type: cell-based; settings: 0.1-1 μM; vehicle 0.0-0.20
From the text: After differentiation was induced, cells that extended neurites were counted.

[2] = mouse, in vivo, po, 12 mg/kg
From the text: Blood and serum samples from days P70 and P100 were collected on three animals from each of the six treatment groups. Hematology measures were white blood cell count, red blood cell count, hemoglobin, hematocrit, mean corpuscular volume, mean corpuscular hemoglobin, mean corpuscular hemoglobin concentration, and platelets. Chemistry values were alanine aminotransferase, aspartate aminotransferase, albumin, total protein, gamma globulin, blood urea nitrogen, cholesterol, and glucose. No analyses were conducted on any samples collected after P100.

Sod1 mutant mice = assay type: in vivo
From the text: Values represent means±SEMs.
Subjects were weighed and tested for Grip Strength, and assigned Clinical and Neurological scores three times a week beginning at P90 and five times a week beginning at P100. The table below summarizes the experimental design of the study.
The grip strength test assesses motor function and control of the fore- and hindpaws. Mice were allowed to grab the bars on the Chatillon DFIS-10 digital force gauge (Largo, Fla.), while being gently pulled parallel away from the bars by the tail. The maximum force measured prior to release of the subject's paw from the bar was recorded.
Animals were scored using the scoring system tabulated below.

HSP70 = settings: rat eyes, single dose 12 mg/kg
Sprague-Dawley rats = experiment: Kainic acid induced neurodegeneration and seizure behaviors in rats (Examples 20, 21); assay type: in vivo, rat; settings: oral
From the text: Seizure behaviors were observed and scored (Ref. R. J. Racine, Modification of seizure activity by electrical stimulation: II. Motor seizure, Electroencephalogr. Clin. […] Modifications were made for the methods). Brain tissues of rats were sectioned on histology slides, and neurons in hippocampus tissues were stained by Nissl. Neurons in dentate gyrus tissues damaged by Kainic acid were quantified. The Memantine composition used in comparison refers to a commercially available NMDA receptor […]. […] Seizure behaviors were observed and scored (Ref. R. J. Racine, Modification of seizure activity by electrical stimulation: II. Motor seizure, Electroencephalogr. Clin. […] Modifications were made for the methods). Brain tissues of rats were sectioned on histology slides, and neurons in hippocampus tissues were stained by Nissl. Neurons damaged by Kainic acid and behavior scores were quantified.

SOD1 mice = experiment: CatWalk gait analysis in SOD1 mice; assay type: in vivo, mouse; design: Hind stride length, Mean/average: unit not given beside the values
From the text: Prior to onset, there was little to no difference between the transgenic and wildtype groups. Transgenic animals tended to rely more on front paws for movement as weakness and paralysis in the hind paws progressed. This began to show around timepoint P100, coinciding with the expected onset of disease. This impairment was seen through changes in front and hind paw step cycle, print area, mean intensity, and base of support.

CC(=O)CC/C=C(\C)CC/C=C(\C)CC/C=C(\C)CCC=C(C)C [CNS-102]
prenylation of Rap1 compared to control (Rap1; student's t-test, P=0.08): slightly increase the prenylation of Rap1 | unprenylated/total RAP1 (%) (Rap1; with GGTI-298, percentage of control (GGTI only)): 59% | EC50 [1]: 0.92 nM | Mean of cell numbers (cells that extended neurites) (Neuro2A cells): 0.45-0.65 Arbitrary units | ABSOLUTE BASOPHIL [2]: 0 per mm^3 | ABSOLUTE EOSINOPHIL [2]: 61.6 per mm^3 | ABSOLUTE LYMPHOCYTE [2]: 3922.4 per mm^3 | ABSOLUTE MONOCYTE [2]: 49.8 per mm^3 | ABSOLUTE NEUTROPHIL SEG [2]: 659.6 per mm^3 | ALKALINE PHOSPHATASE [2]: 70.7 U/L | BASOPHIL [2]: 0.0% | BICARBONATE [2]: 5.0 mg/dL | BUN [2]: 28.8 mg/dL | CALCIUM [2]: 7.7 mg/dL | CHOLESTEROL [2]: 72.4 mg/dL | CREATININE [2]: <1 mg/dL | DIRECT BILIRUBIN [2]: 0.0 mg/dL | EOSINOPHIL [2]: 1.5% | GLUCOSE [2]: 207.6 mg/dL | HCT [2]: 46.0% | HGB [2]: 13.6 gram/dL | INDIRECT BILIRUBIN [2]: 0.0 mg/dL | LYMPHOCYTE [2]: 84.0% | MCH [2]: 15.5 pg | MCHC [2]: 29.5% | MCV [2]: 52.6 U^3 | MONOCYTE [2]: 0.8% | NEUTROPHIL SEG [2]: 13.8% | NRBC [2]: 0.0 per 100 WBC | PHOSPHORUS [2]: 5.7 mg/dL | PLATELET COUNT [2]: 1128.6 Thousands | RBC [2]: 8.8 Millions | SGOT (AST) [2]: 46.3 U/L | SGPT (ALT) [2]: 37.8 U/L | TOTAL BILIRUBIN [2]: 0.0 mg/dL | WBC [2]: 4.7 thousands | clinical and neuroscore testing (Sod1 mutant mice; Sod1 mutant mice, CNS-102 12 mg/kg or Riluzole 8 mg/kg daily oral, vs vehicle): tended to outperform group D | neuroscore testing (Sod1 mutant mice; Sod1 mutant mice, several timepoints around and after P100, vs vehicle): significantly outperforms group D | blood and neurology examinations (Sod1 mutant mice; more than two months of once-daily oral 12 mg/kg): no abnormalities in blood and neurology examinations | body weight (Sod1 mutant mice; wild type mice, group F (CNS-102) vs group E (vehicle)): no noticeable differences | toxicity or behavioral abnormalities (Sod1 mutant mice; wildtype animals dosed with vehicle versus CNS-102 12 mg/kg daily): does not lead to obvious toxicity or behavioral abnormalities | HSP70 Expression (Fold change vs vehicle control), mean ± SD (HSP70; 24 hr): 1.47 ± 0.36 | HSP70 Expression (Fold change vs vehicle control), mean ± SD (HSP70; 48 hr): 1.33 ± 0.10 | HSP70 Expression (Fold change vs vehicle control), mean ± SD (HSP70; 72 hr): 1.40 ± 0.11 | Mean of Hippocampus CA3 Neurons Damaged (Sprague-Dawley rats; 3 mg/Kg rat): 10.25 Arbitrary units | Mean of Seizure behaviors scores (Sprague-Dawley rats; 3 mg/Kg rat): 27.5 | Mean of Hippocampus CA3 Neurons Damaged (Sprague-Dawley rats; 12 mg/Kg rat): 10.16 Arbitrary units | Mean of Seizure behaviors scores (Sprague-Dawley rats; 12 mg/Kg rat): 22.5 | Mean of Hippocampus CA3 Neurons Damaged (Sprague-Dawley rats; 25 mg/Kg rat): 1.97 Arbitrary units | Mean of Seizure behaviors scores (Sprague-Dawley rats; 25 mg/Kg rat): 25.75 | Seizure behaviors scores (Sprague-Dawley rats; Kainic acid, vehicle 34): 18.8 | Run Duration, CNS-102 - vehicle difference of averages (SOD1 mice; P120): −1.68 | Stride Length, CNS-102 - vehicle difference of averages (SOD1 mice; P120): 1.46 | Swing Speed, CNS-102 - vehicle difference of averages (SOD1 mice; P120): 14.58 | Run Duration, Mean/average (SOD1 mice; P-42, SOD1/Vehicle 1.484746201): 1.685 | Hind stride length, Mean/average (SOD1 mice; P-42, SOD1/Vehicle 6.359471205): 6.082 | Swing speed, Mean/average (SOD1 mice; P-42, SOD1/Vehicle 45.8515272): 41.18 | Run Duration, Mean/average (SOD1 mice; P-124 (+/−) 3, SOD1/Vehicle 3.461605345): 1.976 | Hind stride length, Mean/average (SOD1 mice; P-124 (+/−) 3, SOD1/Vehicle 3.607909383): 5.476 | Swing speed, Mean/average (SOD1 mice; P-124 (+/−) 3, SOD1/Vehicle 23.93413455): 35.63
